± gives the standard deviation of the averaged measurements.
Legend:
Assay in all cases: level (log10 ratio to DMSO vehicle control); higher = higher biomarker level / cell amount than vehicle control
Conditions in all cases: in DMSO
[1] = compound: NC(=O)C(F)(F)C(F)(F)C(F)(F)C(F)F
Protocol: (§1)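 BioMAP Diversity Plus panel of 12 human primary cell co-culture systems (3C, 4H, LPS, SAg, BT, BF4T, BE3C, CASM3C, HDF3CGF, KF3CT, MyoF, Mphg). Compounds were added 1 h before stimulation and left for 24 h (MyoF 48 h; BT 72 h for soluble read-outs or 6 d for IgG). Biomarkers were read by ELISA, cytotoxicity by SRB, PBMC viability and proliferation by Alamar Blue. Each well value was divided by the mean of 8 DMSO control wells on the same plate and log10 transformed; duplicate blinded samples were tested at 4 concentrations.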

[2] = compound: FC(F)(F)C(F)(F)CNCC(F)(F)C(F)(F)F [Bis(1H,1H-perfluoropropyl)amine]
Protocol: as §1

[3] = compound: FC(F)(F)C(F)(F)C(F)(F)C(F)(F)C(F)(F)C(F)(F)CC1CO1 [3-(Perfluorohexyl)-1,2-epoxypropane]
Protocol: as §1

Octafluoroadipamide = compound: NC(=O)C(F)(F)C(F)(F)C(F)(F)C(F)(F)C(N)=O [Octafluoroadipamide]
Protocol: as §1

[4] = compound: O=S(=O)(Cl)C(F)(F)C(F)(F)C(F)(F)C(F)(F)C(F)(F)C(F)(F)C(F)(F)C(F)(F)F [Perfluoro-1-octanesulfonyl chloride]
Protocol: as §1

[5] = compound: O=C(O)C(F)(F)C(F)(F)C(F)(F)C(F)(F)C(F)(F)C(F)(F)C(F)(F)C(F)(F)C(F)(F)C(F)F [11-H-Perfluoroundecanoic acid]
Protocol: as §1

Heptafluorobutyl iodide = compound: FC(F)(F)C(F)(F)C(F)(F)CI [Heptafluorobutyl iodide]
Protocol: as §1

Test System	level (log10) ([1]; 6700 nM)	level (log10) ([1]; 20000 nM)	level (log10) ([1]; 60000 nM)	level (log10) ([2]; 6700 nM)	level (log10) ([2]; 20000 nM)	level (log10) ([2]; 60000 nM)	level (log10) ([3]; 6700 nM)	level (log10) ([3]; 20000 nM)	level (log10) ([3]; 60000 nM)	level (log10) (Octafluoroadipamide; 6700 nM)	level (log10) (Octafluoroadipamide; 20000 nM)	level (log10) (Octafluoroadipamide; 60000 nM)	level (log10) ([4]; 6700 nM)	level (log10) ([4]; 20000 nM)	level (log10) ([4]; 60000 nM)	level (log10) ([5]; 6700 nM)	level (log10) ([5]; 20000 nM)	level (log10) (Heptafluorobutyl iodide; 6700 nM)	level (log10) (Heptafluorobutyl iodide; 20000 nM)	level (log10) (Heptafluorobutyl iodide; 60000 nM)
LPS:sTNF-alpha	-0.0095 ± 0.0035	-0.0095 ± 0.022	-0.003 ± 0.031	0.007 ± 0.028	0.005 ± 0.013	-0.0005 ± 0.0078	0.063 ± 0.034	0.09 ± 0.0028	0.103 ± 0.011	0.047 ± 0.018	0.0355 ± 0.018	0.037 ± 0.0042	-0.0175 ± 0.044	-0.002 ± 0.045	-0.026 ± 0.052	0.0065 ± 0.0092	0.0135 ± 0.0035	-0.009 ± 0.017	-0.0095 ± 0.016	-0.009 ± 0.023
MyoF:CD106/VCAM-1	-0.0085 ± 0.013	-0.0205 ± 0.013	-0.0235 ± 0.013	0.0045 ± 0.0078	0.0065 ± 0.005	0.0095 ± 0.0021	0.002 ± 0.013	0.013 ± 0.013	0.0205 ± 0.015	-0.006 ± 0.021	0.026 ± 0.0057	0.002 ± 0.0014	-0.0025 ± 0.0064	0.0025 ± 0.025	-0.0195 ± 0.0092	0.0035 ± 0.0078	-0.152 ± 0.02	-0.003 ± 0.0085	-0.018 ± 0.0071	-0.0055 ± 0.00071
MyoF:CXCL8/IL-8	-0.0285 ± 0.0092	-0.0185 ± 0.028	0.018 ± 0.054	-0.024 ± 0.0028	-0.003 ± 0.018	0.019 ± 0.033	-0.019	-0.0205 ± 0.025	-0.005 ± 0.031	0.007 ± 0.028	-0.006 ± 0.011	0.0075 ± 0.016	-0.005 ± 0.016	0.0115 ± 0.005	0.138 ± 0.0042	-0.0375 ± 0.03	-0.071 ± 0.028	-0.0205 ± 0.0035	-0.0475 ± 0.0092	-0.0395 ± 0.011
MyoF:Collagen I	-0.0115 ± 0.015	-0.002 ± 0.02	0.006 ± 0.017	-0.005 ± 0.0057	-0.014 ± 0.0099	0.0035 ± 0.015	-0.011 ± 0.018	-0.003 ± 0.0028	0.007 ± 0.02	-0.0015 ± 0.015	0.009 ± 0.0071	0.0135 ± 0.0021	-0.009	-0.0185 ± 0.00071	-0.0665 ± 0.00071	-0.0625 ± 0.0092	-0.312 ± 0.023	-0.0015 ± 0.0035	-0.0195 ± 0.005	0.013 ± 0.018
MyoF:Collagen III	0.003	0.0135 ± 0.00071	-0.0065 ± 0.035	0.003 ± 0.016	0.0025 ± 0.005	-0.0035 ± 0.0092	0.007 ± 0.0028	0.003 ± 0.011	0.0065 ± 0.011	0.0035 ± 0.011	0.009 ± 0.0057	-0.0075 ± 0.025	-0.0155 ± 0.0035	-0.0315 ± 0.00071	-0.164 ± 0.035	-0.0405 ± 0.005	-0.475 ± 0.079	-0.0095 ± 0.019	-0.033 ± 0.013	-0.0205 ± 0.033
MyoF:Collagen IV	-0.0075 ± 0.0035	-0.007 ± 0.028	0.014 ± 0.038	-0.014 ± 0.03	-0.0275 ± 0.015	-0.008 ± 0.03	0.002 ± 0.025	0.0185 ± 0.0021	0.0425 ± 0.053	-0.0165 ± 0.015	-0.0065 ± 0.0064	0.003 ± 0.038	0.014 ± 0.011	0.052 ± 0.023	0.241 ± 0.037	0.141 ± 0.0028	0.293 ± 0.034	-0.021 ± 0.0071	-0.0325 ± 0.016	-0.0185 ± 0.039
MyoF:PAI-I	-0.0125 ± 0.013	-0.0125 ± 0.0064	0.005 ± 0.018	-0.005 ± 0.011	0.007 ± 0.013	0.011 ± 0.0014	0.011 ± 0.0099	-0.0035 ± 0.00071	0.0055 ± 0.0021	-0.008 ± 0.027	0.0045 ± 0.0035	0.009 ± 0.0042	-0.018 ± 0.016	-0.0325 ± 0.016	-0.0415 ± 0.013	0.0105 ± 0.012	-0.013 ± 0.02	-0.0105 ± 0.0021	-0.005 ± 0.0028	0.007 ± 0.023
MyoF:SRB	-0.006 ± 0.0042	-0.0175 ± 0.012	-0.003	0 ± 0.0057	-0.011 ± 0.0057	-0.011 ± 0.0042	-0.007 ± 0.0057	-0.005 ± 0.0057	0.0015 ± 0.011	-0.004 ± 0.0028	-0.01 ± 0.0042	-0.0055 ± 0.0078	0.005 ± 0.014	-0.009	-0.0695 ± 0.0092	-0.001 ± 0.0014	-0.086 ± 0.0028	0.002 ± 0.0028	-0.0015 ± 0.0021	0.0075 ± 0.011
MyoF:TIMP-1	-0.031 ± 0.011	-0.024 ± 0.023	-0.0505 ± 0.00071	-0.0225 ± 0.039	0.0005 ± 0.067	-0.0035 ± 0.0064	-0.0295 ± 0.046	-0.028 ± 0.027	0.033 ± 0.03	-0.0325 ± 0.023	0.004 ± 0.033	0.021 ± 0.021	-0.009 ± 0.044	0.0035 ± 0.043	0.148 ± 0.031	0.0255 ± 0.029	0.063 ± 0.0057	-0.059 ± 0.088	-0.068 ± 0.068	-0.0755 ± 0.063
SAg:CCL2/MCP-1	-0.0145 ± 0.026	-0.024 ± 0.013	0.0115 ± 0.03	-0.013 ± 0.016	-0.006 ± 0.0099	0.017 ± 0.028	-0.0075 ± 0.012	0.0005 ± 0.0021	0.003 ± 0.016	-0.001 ± 0.0071	0.002 ± 0.0014	0.0105 ± 0.016	-0.028 ± 0.017	0.0005 ± 0.025	0.041 ± 0.0028	-0.0105 ± 0.022	-0.0125 ± 0.0035	-0.0095 ± 0.0078	-0.0025 ± 0.00071	0.01 ± 0.011
SAg:CD38	-0.034 ± 0.014	-0.027 ± 0.02	-0.0295 ± 0.0064	0.001 ± 0.017	-0.008 ± 0.018	0.002 ± 0.014	0.001 ± 0.014	0.0035 ± 0.00071	-0.015 ± 0.0042	0.0005 ± 0.00071	0.0005 ± 0.018	0.0065 ± 0.0021	-0.0105 ± 0.00071	-0.018 ± 0.0014	-0.058 ± 0.027	-0.0045 ± 0.023	0.004 ± 0.04	-0.0205 ± 0.021	-0.027 ± 0.016	-0.017 ± 0.031
